Results on two compounds are retold here after patent publication EP0846119B1, “THIENOPYRIMIDINE DERIVATIVES, THEIR PRODUCTION AND USE AS ENDOTHELIN ANTAGONISTS” (Takeda Chemical Industries, Ltd., priority 1995, dated 1997).

As a reminder, the IC50 is the concentration that inhibits the measured activity by half. Broadly, the inhibition is the percentage by which the read-out fell short of the control.

The target of experiment [1] is T1, human ETA 24 endothelin receptor (Homo sapiens, UniProt P25101).
T1 construct: expressed in transfected cells; host or cells: CHO cells (clone ETA 24)
T1 sequence (P25101 21-427): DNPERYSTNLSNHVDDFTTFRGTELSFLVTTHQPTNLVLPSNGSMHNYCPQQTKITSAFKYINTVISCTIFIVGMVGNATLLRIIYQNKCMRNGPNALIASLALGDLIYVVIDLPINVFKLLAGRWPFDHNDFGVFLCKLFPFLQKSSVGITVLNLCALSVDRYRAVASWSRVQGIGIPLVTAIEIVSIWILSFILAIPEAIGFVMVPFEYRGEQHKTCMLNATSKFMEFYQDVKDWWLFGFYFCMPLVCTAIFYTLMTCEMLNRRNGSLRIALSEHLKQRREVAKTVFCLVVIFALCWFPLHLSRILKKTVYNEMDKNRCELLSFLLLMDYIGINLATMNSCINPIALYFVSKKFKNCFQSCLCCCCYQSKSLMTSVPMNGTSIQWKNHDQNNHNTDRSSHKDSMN
Nature of the experiment: Binding Test to ETA receptor expressed in CHO cell (ET-1-stimulated [3H]arachidonic acid release). Particulars: CHO cell expressing human ETA (ETA 24 cells), final concentration of ET-1 6.3x10^-10M, n=2. In kind it is cell-based. As for the experimental part: Binding Test to ETA receptor expressed in CHO cell:
cells: CHO cell expressing human ETA 24 endothelin receptor, i.e. ETA 24 cells medium: DMEM 10% FCS Gln, nonessential amino acids, penicillin, streptomycin
Cells were seeded in 12 wells of 24 well plates at a density of 2x10^5 cells/well (1 ml medium/well). On the next day, [^3H]arachidonic acid was added to each well to be 250 nCi(nanocurie)/ml. On the next day, the medium was sucked from the wells by the use of an aspirator to remove free arachidonic acid and floating cells, and then 0.5 ml of medium was added. This procedure was repeated again. After allowing to stand for 30 minutes in a CO2 incubator, the medium was exchanged rapidly.
The sample of compound obtained in Example 5 or compound 16 of Example 11 was stepwise diluted with a buffer solution for dilution, containing 3.15x10^-8M endothelin-1 (ET-1) {20 mM Tris, 5 mM Mg(AcO)2, 2 mM EGTA, 0.03% NaN3, 0.1% BSA, 0.05% CHAPS}. 10 µl of the solution was added to each well (final concentration of ET-1: 6.3x10^-10M). […] After allowing to-stand for 30 minutes in the CO2 incubator, the medium was completely collected and the radio activity of [^3H]arachidonic acid released in the medium was measured by a liquid scintillation counter. IC50 values were calculated by hill plot from the concentration and relative reaction value of each sample. […]

For experiment [2], the target named is T2, human ETB endothelin receptor (Homo sapiens, UniProt P24530).
T2 construct: expressed in transfected cells; host or cells: CHO cells (clone ETB 12)
T2 sequence (P24530 27-442): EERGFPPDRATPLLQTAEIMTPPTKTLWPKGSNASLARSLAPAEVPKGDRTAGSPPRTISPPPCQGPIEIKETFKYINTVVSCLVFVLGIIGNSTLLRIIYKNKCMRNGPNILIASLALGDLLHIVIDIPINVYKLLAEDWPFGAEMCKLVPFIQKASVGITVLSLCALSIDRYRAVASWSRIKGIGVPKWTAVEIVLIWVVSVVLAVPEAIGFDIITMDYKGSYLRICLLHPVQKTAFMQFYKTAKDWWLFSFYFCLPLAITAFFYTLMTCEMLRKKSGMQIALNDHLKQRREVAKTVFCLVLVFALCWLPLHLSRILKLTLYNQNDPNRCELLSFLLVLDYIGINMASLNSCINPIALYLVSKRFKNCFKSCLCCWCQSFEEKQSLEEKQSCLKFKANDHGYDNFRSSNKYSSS
Nature of the experiment: Binding Test to ETB receptor expressed in CHO cell (ET-1-stimulated [3H]arachidonic acid release). The class given is cell-based. The settings on record: CHO cell expressing human ETB (ETB 12 cells), final concentration of ET-1 6.3x10^-10M, n=2. As for the experimental part: Binding Test to ETB receptor expressed in CHO cell:
cells: CHO cell expressing human ETB endothelin receptor, i.e. ETB 12 cells medium: DMEM 10% FCS Gln, nonessential amino acids, penicillin, streptomycin
Cells were seeded in 12 wells of 24 well plates at a density of 2x10^5 cells/well (1 ml medium/well). On the next day, [^3H]arachidonic acid was added to each well to be 250 nCi(nanocurie)/ml. On the next day, the medium was sucked from the wells by the use of an aspirator to remove free arachidonic acid and floating cells, and then 0.5 ml of medium was added. This procedure was repeated agian. After allowing to stand for 30minutes in a CO2 incubator, the medium was exchanged rapidly.
The sample of compound obtained in Example 5 or compound 16 of Example 11 was stepwise diluted with a buffer solution for dilution, containing 3.15x10^-8M endothelin-1 (ET-1) {20 mM Tris, 5mM Mg(AcO)2, 2 mM EGTA, 0.03% NaN3, 0.1% BSA, 0.05% CHAPS}. 10 µl of the solution was added to each well (final concentration of ET-1: 6.3x10^-10M). […] After allowing to-stand for 30 minutes in the CO2 incubator, the medium was completely collected and the radio activity of [^3H]arachidonic acid released in the medium was measured by a liquid scintillation counter. IC50 values were calculated by Hill Plot from the concentration and relative reaction value of each sample.

For experiment [3], the system named is coronary vein where ETB is expressed. The experiment is described as follows: Inhibition Test on coronary vein where ETB is expressed (S6c-induced constriction of ring samples). Particulars: Sus scrofa, porcine coronary vein ring, pre-treatment 30 minutes, relative to vehicle group, read-out: % inhibition (MEAN ± S.E.M.) (n=) vein (S6c 1 nM); for inhibition at 0.1 µM: compound 0.1 µM; for inhibition at 10 µM: compound 10 µM. On the procedure: Inhibition Test on coronary vein where ETB is expressed:
3-mm ring samples for vehicle group and drug-treating group were prepared by removing fat and connective tissue from coronary vein enucleated from porcine heart and obtained from the adjacent portions thereof. The samples, hanging in Magnus tube filled with Krebs solution, were stabilized for 90 minutes under 0.5 g static tension. After subjecting the samples to constriction for 10 minutes by potassium chloride (KCl) (60 mM) to obtain the maximum reaction, the samples were washed and stabilized for 60 minutes. After pre-treating compound obtained in Example 5 or Compound 16 of Example 11 or vehicle (H2O) for 30 minutes, S6c (1 nM) (S6c: sarafotoxin S6c, peptide type snake toxin consisting of 21 amino acids, it is useful for the selective agonist to ETB receptor owing to the similarity of its structure to endothelin) was added to observe the maximum constriction.
The constriction efficiency (% KCl) of S6c was calculated as a relative value to KCl constriction of each sample which was regarded as 100%. Further, the inhibiting efficiency was calculated from the constriction efficiency of the drug-treating group calculated as a relative value to the constriction of the vehicle group which was regarded as 100%.

Compound `CCS(=O)(=O)NCc1c(-c2ccc(OCOC)cc2)sc2c1c(=O)n(CC(=O)O)c(=O)n2Cc1ccccc1SC` [11(16), 2,4(1H,3H)-Dioxo-6-(4-methoxymethoxyphenyl)-1-(2-methylthiobenzyl)-5-(ethanesulfonamidomethyl)thieno[2,3-d]pyrimidine-3-acetic acid] had an IC50 in experiment [1] of 110 nM. The same compound returned an IC50 in experiment [2] of 130 nM. Besides, in experiment [3], the inhibition at 0.1 µM came out at 53.3 ± 4.4% and the inhibition at 10 µM worked out at 98 ± 1.1%.
In the same order, the values of `COCOc1ccc(-c2sc3c(c2CNS(C)(=O)=O)c(=O)n(CC(=O)O)c(=O)n3Cc2ccccc2SC)cc1` [Example 5, 2,4(1H,3H)-dioxo-6-(4-methoxymethoxyphenyl)-1-(2-methylthiobenzyl)-5-(methanesulfonamidomethyl)thieno[2,3-d]pyrimidine-3-aretic acid] are 390 nM, 490 nM, 73.4 ± 3.1% and 100%.
